Here are results for one compound from paper PMC11754874, “Novel inhibitors of the (VIBVN) NAT protein identified through pharmacophore modeling” (Scientific Reports, 2025).

The target in the experiment is (VIBVN)NAT (arylamine N-acetyltransferase). In words: DTNB assay of AcCoA-dependent acetylation, absorbance at […] nm. Format: biochemical, Vibrio vulnificus.

As usually defined, the IC50 is the point on the concentration scale where inhibition reaches its midpoint. High values mean weaker potency, low ones greater potency. The compound `CCCS(=O)(=O)c1c(S(=O)(=O)CCC)c2ccccn2c1C(=O)N/N=C/c1cc(OC)ccc1O` [AG-205-36710025] showed an IC50 of 33.3 µM.
